Assay results from patent US20080269213A1, “8-Hydroxyquinoline compounds and methods thereof” (Wyeth, priority 2006, published 2008).
“And” between values parts separate entries of the source, which are not always exact repeats. Equal entries are not always repeated.

target: T1, recombinant human Aggrecanase-2 Agg2-Phe628 (Homo sapiens, UniProt Q9UNA0); assay: Aggrecanase 2 in vitro enzyme assay (Agg-2 FRET, quenched fluorescent peptide substrate); type: biochemical; set-up: purified recombinant human Aggrecanase-2 Agg2-Phe628 (MW=41,737); This is a truncated form of full-length human aggrecanase-2; made in house; host or cells: CHO cells; conditions: @ 2500 nM
T1 sequence (Q9UNA0 262-628 limits assumed): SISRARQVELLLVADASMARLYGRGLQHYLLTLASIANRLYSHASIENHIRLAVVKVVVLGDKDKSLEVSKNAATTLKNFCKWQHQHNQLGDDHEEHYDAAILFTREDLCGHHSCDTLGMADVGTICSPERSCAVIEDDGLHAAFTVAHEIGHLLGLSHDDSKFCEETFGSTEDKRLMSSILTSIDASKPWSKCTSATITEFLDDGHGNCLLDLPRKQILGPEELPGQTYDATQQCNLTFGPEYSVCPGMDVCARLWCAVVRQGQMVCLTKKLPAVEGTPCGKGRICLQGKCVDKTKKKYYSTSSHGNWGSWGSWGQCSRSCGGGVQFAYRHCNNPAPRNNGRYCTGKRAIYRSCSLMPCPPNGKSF
Procedure: A continuous assay was used in which the substrate was a synthetic peptide containing a fluorescent group (o-aminobenzyl, Abz), which was quenched by energy transfer to a 2,4-dinitrophenyl group (Dnp). The buffer used in this assay was 50 mM HEPES, pH 7.5, 100 mM NaCl, 5 mM CaCl2, 0.1% CHAPS, 5% glycerol. The source of enzyme was purified recombinant human Aggrecanase-2 Agg2-Phe628 (MW=41,737). This is a truncated form of full-length human aggrecanase-2 that was expressed in CHO cells and purified. The final concentration of Agg2-Phe628 was 0.5 μg/ml. […] It is a synthetic peptide that is designed after a portion of brevican, one of the naturally occurring substrates of Aggrecanase-2, of the sequence Abz-[…]-Dap(Dnp)-KK—NH2 (mass=1740). The concentration of this substrate stock was spectrophotometrically determined using the extinction coefficient at 354 nm of 18,172 M^−1cm^−1. […] The final concentration of substrate in the assay was 25 μM.
Test compounds (in duplicate) were serially diluted from 2 mM to 0.01 μM in 100% DMSO. The total reaction volume was 100 μl. The buffer and enzyme were added first followed by addition of 10× inhibitor from the dilution plate. Enzyme and buffer alone samples were included in order to obtain the maximal rate of substrate cleavage. […] Then substrate was added, mixed and the reaction monitored for 40 min at 30° C. in kinetic mode using λex: 340 nm and % λem: 420 (GeminiXS Molecular Devices).

Row | inhibition at […] [%] | SMILES
1 | 62 | O=C(COc1ccccc1)NC(c1ccccc1O)c1cc(Cl)c2cccnc2c1O (centres unmarked) [N-[(5-chloro-8-hydroxyquinolin-7-yl)(2-hydroxyphenyl)methyl]-2-phenoxyacetamide]

same assay, conditions: concentration not given

Row | SMILES | Agg-2 FRET Median PCT INHIB [%]
2 | O=C(CCCc1ccccc1)NC(c1ccccc1Cl)c1cc(Cl)c2cccnc2c1O (centres unmarked) [N-[(5-chloro-8-hydroxyquinolin-7-yl)(2-chlorophenyl)methyl]-4-phenylbutanamide] | 48
3 | Cc1ccccc1C(NC(=O)CCCc1ccccc1)c1cc(Cl)c2cccnc2c1O (centres unmarked) [N-[(5-chloro-8-hydroxyquinolin-7-yl)(2-methylphenyl)methyl]-4-phenylbutanamide] | 49
4 | Cc1cc(OCC(=O)NC(c2cccc([N+](=O)[O-])c2)c2cc(Cl)c3cccnc3c2O)ccc1Cl (centres unmarked) [N-[(5-chloro-8-hydroxyquinolin-7-yl)(3-nitrophenyl)methyl]-2-(4-chloro-3-methylphenoxy)acetamide] | 53
5 | COc1ccc(C(NC(=O)COc2ccc(Cl)c(C)c2)c2cc(Cl)c3cccnc3c2O)cc1 (centres unmarked) [N-[(5-chloro-8-hydroxyquinolin-7-yl)(4-methoxyphenyl)methyl]-2-(4-chloro-3-methylphenoxy)acetamide] | 57
6 | Cc1ccc(C(NC(=O)CCCc2ccccc2)c2cc(Cl)c3cccnc3c2O)cc1 (centres unmarked) [N-[(5-chloro-8-hydroxyquinolin-7-yl)(4-methylphenyl)methyl]-4-phenylbutanamide] | 41
7 | O=C(CCc1ccccc1)NC(c1ccccc1)c1cc(Cl)c2cccnc2c1O (centres unmarked) [N-[(5-chloro-8-hydroxyquinolin-7-yl)(phenyl)methyl]-3-phenylpropanamide] | 23
8 | COc1c(C(NC(=O)COc2ccccc2)c2ccccc2Cl)cc(Cl)c2cccnc12 (centres unmarked) [N-[(5-chloro-8-methoxyquinolin-7-yl)(2-chlorophenyl)methyl]-2-phenoxyacetamide] | 32

Next, values leading:

Row | Agg-2 FRET Median PCT INHIB [%] | SMILES
9 | 50 | COc1c(C(NC(=O)COc2ccccc2)c2ccccc2)cc(Cl)c2cccnc12 (centres unmarked) [N-[(5-chloro-8-methoxyquinolin-7-yl)(phenyl)methyl]-2-phenoxyacetamide]
10 | 50 | CC(=O)NC(c1ccccc1)c1ccc2cccnc2c1O (centres unmarked) [N-[(8-hydroxyquinolin-7-yl)(phenyl)methyl]acetamide]

same assay, conditions: read-out: Agg2 IC50

Row | IC50 [nM] | SMILES
11 | > 5000 | O=C(CCc1ccccc1)NC(c1ccccc1)c1cc(Cl)c2cccnc2c1O (centres unmarked) [N-[(5-chloro-8-hydroxyquinolin-7-yl)(phenyl)methyl]-3-phenylpropanamide]
12 | 1300 | O=C(COc1ccccc1)NC(c1cnc2ccccc2c1)c1cc(Cl)c2cccnc2c1O (centres unmarked) [N-[(5-chloro-8-hydroxyquinolin-7-yl)(quinolin-3-yl)methyl]-2-phenoxyacetamide]

same assay, conditions: read-out: Agg-2 FRET Median IC50

Row | SMILES | IC50
13 | O=C(COc1ccccc1)NC(c1cc([N+](=O)[O-])ccc1Cl)c1cc(Cl)c2cccnc2c1O (centres unmarked) [N-[(5-chloro-8-hydroxyquinolin-7-yl)(2-chloro-5-nitrophenyl)methyl]-2-phenoxyacetamide] | 523 nM
14 | O=C(COc1ccccc1)NC(c1cccs1)c1cc(Cl)c2cccnc2c1O (centres unmarked) [N-[(5-chloro-8-hydroxyquinolin-7-yl)(2-thienyl)methyl]-2-phenoxyacetamide] | 1220 nM
15 | O=C(COc1ccccc1)NC(c1ccc(Cl)c(Cl)c1)c1cc(Cl)c2cccnc2c1O (centres unmarked) [N-[(5-chloro-8-hydroxyquinolin-7-yl)(3,4-dichlorophenyl)methyl]-2-phenoxyacetamide] | 1360 nM
16 | COc1cc(OC)cc(C(NC(=O)COc2ccccc2)c2cc(Cl)c3cccnc3c2O)c1 (centres unmarked) [N-[(5-chloro-8-hydroxyquinolin-7-yl)(3,5-dimethoxyphenyl)methyl]-2-phenoxyacetamide] | 1090 nM
17 | O=C(COc1ccccc1)NC(c1cccc(F)c1)c1cc(Cl)c2cccnc2c1O (centres unmarked) [N-[(5-chloro-8-hydroxyquinolin-7-yl)(3-fluorophenyl)methyl]-2-phenoxyacetamide] | 624 nM
18 | COc1cccc(C(NC(=O)COc2ccccc2)c2cc(Cl)c3cccnc3c2O)c1 (centres unmarked) [N-[(5-chloro-8-hydroxyquinolin-7-yl)(3-methoxyphenyl)methyl]-2-phenoxyacetamide] | 1840 nM
19 | O=C(CCCc1ccccc1)NC(c1cccc([N+](=O)[O-])c1)c1cc(Cl)c2cccnc2c1O (centres unmarked) [N-[(5-chloro-8-hydroxyquinolin-7-yl)(3-nitrophenyl)methyl]-4-phenylbutanamide] | 1150 nM
20 | COc1cc(C(NC(=O)COc2ccccc2)c2cc(Cl)c3cccnc3c2O)ccc1O (centres unmarked) [N-[(5-chloro-8-hydroxyquinolin-7-yl)(4-hydroxy-3-methoxyphenyl)methyl]-2-phenoxyacetamide] | 7300 nM
21 | COc1ccc(C(NC(=O)COc2cccnc2)c2cc(Cl)c3cccnc3c2O)cc1 (centres unmarked) [N-[(5-chloro-8-hydroxyquinolin-7-yl)(4-methoxyphenyl)methyl]-2-(pyridin-3-yloxy)acetamide] | 2980 nM
22 | COc1ccc(C(NC(=O)COc2ccccc2)c2cc(Cl)c3cccnc3c2O)cc1 (centres unmarked) [N-[(5-chloro-8-hydroxyquinolin-7-yl)(4-methoxyphenyl)methyl]-2-phenoxyacetamide] | 1120 nM and 1000 nM
23 | O=C(COc1ccc(Cl)cc1)NC(c1ccccc1)c1cc(Cl)c2cccnc2c1O (centres unmarked) [N-[(5-chloro-8-hydroxyquinolin-7-yl)(phenyl)methyl]-2-(4-chlorophenoxy)acetamide] | 1020 nM
24 | COc1ccc(OCC(=O)NC(c2ccccc2)c2cc(Cl)c3cccnc3c2O)cc1 (centres unmarked) [N-[(5-chloro-8-hydroxyquinolin-7-yl)(phenyl)methyl]-2-(4-methoxyphenoxy)acetamide] | 1380 nM
25 | CC(=O)NC(c1ccccc1)c1cc(Cl)c2cccnc2c1O (centres unmarked) [N-[(5-chloro-8-hydroxyquinolin-7-yl)(phenyl)methyl]acetamide] | 19700 nM
26 | O=C(NC(c1ccccc1)c1cc(Cl)c2cccnc2c1O)c1ccccc1 (centres unmarked) [N-[(5-chloro-8-hydroxyquinolin-7-yl)(phenyl)methyl]benzamide] | 1310 nM

Now from value to compound:

Row | IC50 | SMILES
27 | 3510 nM | Cc1ccccc1C(NC(=O)COc1ccccc1)c1cc(C)c2cccnc2c1O (centres unmarked) [N-[(8-hydroxy-5-methylquinolin-7-yl)(2-methylphenyl)methyl]-2-phenoxyacetamide]
28 | 854 nM | Cc1ccccc1C(NC(=O)COc1ccccc1)c1cc([N+](=O)[O-])c2cccnc2c1O (centres unmarked) [N-[(8-hydroxy-5-nitroquinolin-7-yl)(2-methylphenyl)methyl]-2-phenoxyacetamide]
29 | 4510 nM | COc1ccc(OCC(=O)NC(c2ccc(OC)cc2)c2ccc3cccnc3c2O)cc1 (centres unmarked) [N-[(8-hydroxyquinolin-7-yl)(4-methoxyphenyl)methyl]-2-(4-methoxyphenoxy)acetamide]
30 | 2830 nM | COc1ccc(C(NC(=O)COc2ccc(C)cc2)c2ccc3cccnc3c2O)cc1 (centres unmarked) [N-[(8-hydroxyquinolin-7-yl)(4-methoxyphenyl)methyl]-2-(4-methylphenoxy)acetamide]
31 | 4410 nM | COc1ccc(C(NC(=O)COc2ccccc2)c2ccc3cccnc3c2O)cc1 (centres unmarked) [N-[(8-hydroxyquinolin-7-yl)(4-methoxyphenyl)methyl]-2-phenoxyacetamide]
32 | 3010 nM | Cc1ccc(C(NC(=O)COc2ccccc2)c2ccc3cccnc3c2O)cc1 (centres unmarked) [N-[(8-hydroxyquinolin-7-yl)(4-methylphenyl)methyl]-2-phenoxyacetamide]
33 | 2390 nM | O=C(COc1ccccc1)NC(c1ccc([N+](=O)[O-])cc1)c1ccc2cccnc2c1O (centres unmarked) [N-[(8-hydroxyquinolin-7-yl)(4-nitrophenyl)methyl]-2-phenoxyacetamide]
34 | 3340 nM | COc1ccc(OCC(=O)NC(c2ccccc2)c2ccc3cccnc3c2O)cc1 (centres unmarked) [N-[(8-hydroxyquinolin-7-yl)(phenyl)methyl]-2-(4-methoxyphenoxy)acetamide]
35 | 2470 nM | Cc1ccc(OCC(=O)NC(c2ccccc2)c2ccc3cccnc3c2O)cc1 (centres unmarked) [N-[(8-hydroxyquinolin-7-yl)(phenyl)methyl]-2-(4-methylphenoxy)acetamide]
36 | 908 nM | O=C(COc1ccc(Oc2ccccc2)cc1)NC(c1ccccc1)c1ccc2cccnc2c1O (centres unmarked) [N-[(8-hydroxyquinolin-7-yl)(phenyl)methyl]-2-(4-phenoxyphenoxy)acetamide]
37 | 4700 nM and 5470 nM | O=C(NC(c1ccccc1)c1ccc2cccnc2c1O)c1ccccc1 (centres unmarked) [N-[(8-hydroxyquinolin-7-yl)(phenyl)methyl]benzamide]

same assay, conditions: ~600-1800 nM

Row | Agg2 % inh [% inh ~600-1800] | SMILES
38 | 50 | COc1cc(OC)cc(OCC(=O)NC(c2ccccc2)c2cc(Cl)c3cccnc3c2O)c1 (centres unmarked) [N-[(5-chloro-8-hydroxyquinolin-7-yl)(phenyl)methyl]-2-(3,5-dimethoxyphenoxy)acetamide]
